# Test results: ChEMBL document CHEMBL5038625, “Application of the dual-tail approach for the design and synthesis of novel Thiopyrimidine-Benzenesulfonamide hybrids as selective carbonic anhydrase inhibitors” (Eur J Med Chem, 2022)
# How the values were obtained:
# Carbonic anhydrase 9 = Carbonic anhydrase 9 (Homo sapiens, UniProt Q16790); test: Inhibition of human CA9 preincubated for 15 mins by phenol red dye based stopped flow CO2 hydration assay
# SF-539 = test: Antiproliferative activity against human SF-539 cells assessed as cell growth inhibition at 10 uM incubated for 24 hrs by sulforhodamine B assay; assay type: functional; settings: read-out: GI
# CCRF-CEM = test: Antiproliferative activity against human CCRF-CEM cells assessed as cell growth inhibition at 10 uM incubated for 24 hrs by sulforhodamine B assay; assay type: functional; settings: read-out: GI
# HL-60 = test: Antiproliferative activity against human HL-60 cells assessed as cell growth inhibition at 10 uM incubated for 24 hrs by sulforhodamine B assay; assay type: functional; settings: read-out: GI
# K562 = test: Antiproliferative activity against human K562 cells assessed as cell growth inhibition at 10 uM incubated for 24 hrs by sulforhodamine B assay; assay type: functional; settings: read-out: GI
# MOLT-4 = test: Antiproliferative activity against human MOLT-4 cells assessed as cell growth inhibition at 10 uM incubated for 24 hrs by sulforhodamine B assay; assay type: functional; settings: read-out: GI
# RPMI-8226 = test: Antiproliferative activity against human RPMI-8226 cells assessed as cell growth inhibition at 10 uM incubated for 24 hrs by sulforhodamine B assay; assay type: functional; settings: read-out: GI
# SR = test: Antiproliferative activity against human SR cells assessed as cell growth inhibition at 10 uM incubated for 24 hrs by sulforhodamine B assay; assay type: functional; settings: read-out: GI
# A549 = test: Antiproliferative activity against human A549 cells assessed as cell growth inhibition at 10 uM incubated for 24 hrs by sulforhodamine B assay; assay type: functional; settings: read-out: GI
# EKVX = test: Antiproliferative activity against human EKVX cells assessed as cell growth inhibition at 10 uM incubated for 24 hrs by sulforhodamine B assay; assay type: functional; settings: read-out: GI
# NCI-H226 = test: Antiproliferative activity against human NCI-H226 cells assessed as cell growth inhibition at 10 uM incubated for 24 hrs by sulforhodamine B assay; assay type: functional; settings: read-out: GI
# NCI-H23 = test: Antiproliferative activity against human NCI-H23 cells assessed as cell growth inhibition at 10 uM incubated for 24 hrs by sulforhodamine B assay; assay type: functional; settings: read-out: GI
# [1] = Antiproliferative activity against human […] cells assessed as cell growth inhibition at 10 uM incubated for 24 hrs by sulforhodamine B assay; assay type: functional; settings: read-out: GI
# NCI-H460 = test: Antiproliferative activity against human NCI-H460 cells assessed as cell growth inhibition at 10 uM incubated for 24 hrs by sulforhodamine B assay; assay type: functional; settings: read-out: GI
# NCI-H522 = test: Antiproliferative activity against human NCI-H522 cells assessed as cell growth inhibition at 10 uM incubated for 24 hrs by sulforhodamine B assay; assay type: functional; settings: read-out: GI
# COLO 205 = test: Antiproliferative activity against human COLO 205 cells assessed as cell growth inhibition at 10 uM incubated for 24 hrs by sulforhodamine B assay; assay type: functional; settings: read-out: GI
# HCT-116 = test: Antiproliferative activity against human HCT-116 cells assessed as cell growth inhibition at 10 uM incubated for 24 hrs by sulforhodamine B assay; assay type: functional; settings: read-out: GI
# HCT-15 = test: Antiproliferative activity against human HCT-15 cells assessed as cell growth inhibition at 10 uM incubated for 24 hrs by sulforhodamine B assay; assay type: functional; settings: read-out: GI
# HT-29 = test: Antiproliferative activity against human HT-29 cells assessed as cell growth inhibition at 10 uM incubated for 24 hrs by sulforhodamine B assay; assay type: functional; settings: read-out: GI
# KM12 = test: Antiproliferative activity against human KM12 cells assessed as cell growth inhibition at 10 uM incubated for 24 hrs by sulforhodamine B assay; assay type: functional; settings: read-out: GI
# SW-620 = test: Antiproliferative activity against human SW-620 cells assessed as cell growth inhibition at 10 uM incubated for 24 hrs by sulforhodamine B assay; assay type: functional; settings: read-out: GI
# SF-268 = test: Antiproliferative activity against human SF-268 cells assessed as cell growth inhibition at 10 uM incubated for 24 hrs by sulforhodamine B assay; assay type: functional; settings: read-out: GI
# SF-295 = test: Antiproliferative activity against human SF-295 cells assessed as cell growth inhibition at 10 uM incubated for 24 hrs by sulforhodamine B assay; assay type: functional; settings: read-out: GI
# SNB-19 = test: Antiproliferative activity against human SNB-19 cells assessed as cell growth inhibition at 10 uM incubated for 24 hrs by sulforhodamine B assay; assay type: functional; settings: read-out: GI
# SNB-75 = test: Antiproliferative activity against human SNB-75 cells assessed as cell growth inhibition at 10 uM incubated for 24 hrs by sulforhodamine B assay; assay type: functional; settings: read-out: GI
# U-251 = test: Antiproliferative activity against human U-251 cells assessed as cell growth inhibition at 10 uM incubated for 24 hrs by sulforhodamine B assay; assay type: functional; settings: read-out: GI
# LOX IMVI = test: Antiproliferative activity against human LOX IMVI cells assessed as cell growth inhibition at 10 uM incubated for 24 hrs by sulforhodamine B assay; assay type: functional; settings: read-out: GI
# M14 = test: Antiproliferative activity against human M14 cells assessed as cell growth inhibition at 10 uM incubated for 24 hrs by sulforhodamine B assay; assay type: functional; settings: read-out: GI
# MDA-MB-435 = test: Antiproliferative activity against human MDA-MB-435 cells assessed as cell growth inhibition at 10 uM incubated for 24 hrs by sulforhodamine B assay; assay type: functional; settings: read-out: GI
# SK-MEL-5 = test: Antiproliferative activity against human SK-MEL-5 cells assessed as cell growth inhibition at 10 uM incubated for 24 hrs by sulforhodamine B assay; assay type: functional; settings: read-out: GI
# UACC-62 = test: Antiproliferative activity against human UACC-62 cells assessed as cell growth inhibition at 10 uM incubated for 24 hrs by sulforhodamine B assay; assay type: functional; settings: read-out: GI
# IGROV-1 = test: Antiproliferative activity against human IGROV-1 cells assessed as cell growth inhibition at 10 uM incubated for 24 hrs by sulforhodamine B assay; assay type: functional; settings: read-out: GI
# OVCAR-3 = test: Antiproliferative activity against human OVCAR-3 cells assessed as cell growth inhibition at 10 uM incubated for 24 hrs by sulforhodamine B assay; assay type: functional; settings: read-out: GI
# OVCAR-4 = test: Antiproliferative activity against human OVCAR-4 cells assessed as cell growth inhibition at 10 uM incubated for 24 hrs by sulforhodamine B assay; assay type: functional; settings: read-out: GI
# OVCAR-8 = test: Antiproliferative activity against human OVCAR-8 cells assessed as cell growth inhibition at 10 uM incubated for 24 hrs by sulforhodamine B assay; assay type: functional; settings: read-out: GI
# NCI/ADR-RES = test: Antiproliferative activity against human NCI-ADR-RES cells assessed as cell growth inhibition at 10 uM incubated for 24 hrs by sulforhodamine B assay; assay type: functional; settings: read-out: GI
# A498 = test: Antiproliferative activity against human A498 cells assessed as cell growth inhibition at 10 uM incubated for 24 hrs by sulforhodamine B assay; assay type: functional; settings: read-out: GI
# ACHN = test: Antiproliferative activity against human ACHN cells assessed as cell growth inhibition at 10 uM incubated for 24 hrs by sulforhodamine B assay; assay type: functional; settings: read-out: GI
# CAKI-1 = test: Antiproliferative activity against human CAKI-1 cells assessed as cell growth inhibition at 10 uM incubated for 24 hrs by sulforhodamine B assay; assay type: functional; settings: read-out: GI
# RXF 393 = test: Antiproliferative activity against human RXF 393 cells assessed as cell growth inhibition at 10 uM incubated for 24 hrs by sulforhodamine B assay; assay type: functional; settings: read-out: GI
# SN12C = test: Antiproliferative activity against human SN12C cells assessed as cell growth inhibition at 10 uM incubated for 24 hrs by sulforhodamine B assay; assay type: functional; settings: read-out: GI
# UO-31 = test: Antiproliferative activity against human UO-31 cells assessed as cell growth inhibition at 10 uM incubated for 24 hrs by sulforhodamine B assay; assay type: functional; settings: read-out: GI
# PC-3 = test: Antiproliferative activity against human PC-3 cells assessed as cell growth inhibition at 10 uM incubated for 24 hrs by sulforhodamine B assay; assay type: functional; settings: read-out: GI
# DU-145 = test: Antiproliferative activity against human DU-145 cells assessed as cell growth inhibition at 10 uM incubated for 24 hrs by sulforhodamine B assay; assay type: functional; settings: read-out: GI
# MCF7 = test: Antiproliferative activity against human MCF7 cells assessed as cell growth inhibition at 10 uM incubated for 24 hrs by sulforhodamine B assay; assay type: functional; settings: read-out: GI
# Hs-578T = test: Antiproliferative activity against human HS-578T cells assessed as cell growth inhibition at 10 uM incubated for 24 hrs by sulforhodamine B assay; assay type: functional; settings: read-out: GI
# T47D = test: Antiproliferative activity against human T47D cells assessed as cell growth inhibition at 10 uM incubated for 24 hrs by sulforhodamine B assay; assay type: functional; settings: read-out: GI
# MDA-MB-468 = test: Antiproliferative activity against human MDA-MB-468 cells assessed as cell growth inhibition at 10 uM incubated for 24 hrs by sulforhodamine B assay; assay type: functional; settings: read-out: GI
# MDA-MB-231 = test: Antiproliferative activity against human MDA-MB-231 cells assessed as cell growth inhibition at 10 uM incubated for 24 hrs by sulforhodamine B assay; assay type: functional; settings: read-out: GI
smiles,measurement,setting,value
COc1ccc(OC)c(-c2nc(SCC(=O)c3ccc(Br)cc3)nc(Nc3cccc(S(N)(=O)=O)c3)c2C#N)c1,Ki,Carbonic anhydrase 9,60.1 nM
same,inhibition of growth at 10 µM,SF-539,16.5%
same,inhibition of growth at 10 µM,CCRF-CEM,20.1%
same,inhibition of growth at 10 µM,HL-60,10.3%
same,inhibition of growth at 10 µM,K562,29.5%
same,inhibition of growth at 10 µM,MOLT-4,45.3%
same,inhibition of growth at 10 µM,RPMI-8226,18.5%
same,inhibition of growth at 10 µM,SR,30.5%
same,inhibition of growth at 10 µM,A549,26.7%
same,inhibition of growth at 10 µM,EKVX,18.4%
same,inhibition of growth at 10 µM,NCI-H226,15.2%
same,inhibition of growth at 10 µM,NCI-H23,7.31%
same,inhibition of growth at 10 µM,[1],14%
same,inhibition of growth at 10 µM,NCI-H460,22.5%
same,inhibition of growth at 10 µM,NCI-H522,5.79%
same,inhibition of growth at 10 µM,COLO 205,14.6%
same,inhibition of growth at 10 µM,HCT-116,27.9%
same,inhibition of growth at 10 µM,HCT-15,23.4%
same,inhibition of growth at 10 µM,HT-29,9.87%
same,inhibition of growth at 10 µM,KM12,11.8%
same,inhibition of growth at 10 µM,SW-620,13.9%
same,inhibition of growth at 10 µM,SF-268,23.7%
same,inhibition of growth at 10 µM,SF-295,13.3%
same,inhibition of growth at 10 µM,SNB-19,16.4%
same,inhibition of growth at 10 µM,SNB-75,23.1%
same,inhibition of growth at 10 µM,U-251,19.1%
same,inhibition of growth at 10 µM,LOX IMVI,16.6%
same,inhibition of growth at 10 µM,M14,6.53%
same,inhibition of growth at 10 µM,MDA-MB-435,15.4%
same,inhibition of growth at 10 µM,SK-MEL-5,5.18%
same,inhibition of growth at 10 µM,UACC-62,11.6%
same,inhibition of growth at 10 µM,IGROV-1,8.33%
same,inhibition of growth at 10 µM,OVCAR-3,22.4%
same,inhibition of growth at 10 µM,OVCAR-4,24.1%
same,inhibition of growth at 10 µM,OVCAR-8,14.2%
same,inhibition of growth at 10 µM,NCI/ADR-RES,8.77%
same,inhibition of growth at 10 µM,A498,22.5%
same,inhibition of growth at 10 µM,ACHN,20.2%
same,inhibition of growth at 10 µM,CAKI-1,52.1%
same,inhibition of growth at 10 µM,RXF 393,39.8%
same,inhibition of growth at 10 µM,SN12C,18.1%
same,inhibition of growth at 10 µM,UO-31,50.2%
same,inhibition of growth at 10 µM,PC-3,34.1%
same,inhibition of growth at 10 µM,DU-145,12.9%
same,inhibition of growth at 10 µM,MCF7,28.6%
same,inhibition of growth at 10 µM,Hs-578T,25.5%
same,inhibition of growth at 10 µM,T47D,23.9%
same,inhibition of growth at 10 µM,MDA-MB-468,15.4%
same,inhibition of growth at 10 µM,MDA-MB-231,23.8%
